pIC50: −log10 of the molar value.
Experiment: Anticancer human tumor 997537-175-T-J1-PDC patient-derived colon adenocarcinoma cell line growth inhibition [POLQ]
Conditions: 997537-175-T-J1-PDC complex spheroid viability, combination with POLQ inhibitors; for pIC50: curve of first compound; for viability, T/C: stronger effect = lower value; active = viability on the fitted dose curve at most 10% of control; inactive = the rest
How it was run: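 PDC + HUVEC + MSC complex spheroids; POLQ inhibitors ± partner drugs; top conc. at/near clinical Cmax, else 10 microM (SN-38 1 microM), half-log dilutions; 37 degrees C, 5% CO2.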

[1] = second compound 0.0316 µM, first compound 0.0316 µM
[2] = second compound 0.0316 µM, first compound 0.1 µM
[3] = second compound 0.0316 µM, first compound 0.316 µM
[4] = second compound 0.0316 µM, first compound 1 µM
[5] = second compound 0.0316 µM, first compound 3.16 µM
[6] = second compound 0.0316 µM, first compound 10 µM
[7] = second compound 0.1 µM, first compound 0.0316 µM
[8] = second compound 0.1 µM, first compound 0.1 µM
[9] = second compound 0.1 µM, first compound 0.316 µM
[10] = second compound 0.1 µM, first compound 1 µM
[11] = second compound 0.1 µM, first compound 3.16 µM
[12] = second compound 0.1 µM, first compound 10 µM
[13] = second compound 0.316 µM, first compound 0.0316 µM
[14] = second compound 0.316 µM, first compound 0.1 µM
[15] = second compound 0.316 µM, first compound 0.316 µM
[16] = second compound 0.316 µM, first compound 1 µM
[17] = second compound 0.316 µM, first compound 3.16 µM
[18] = second compound 0.316 µM, first compound 10 µM
[19] = second compound 1 µM, first compound 0.0316 µM
[20] = second compound 1 µM, first compound 0.1 µM
[21] = second compound 1 µM, first compound 0.316 µM
[22] = second compound 1 µM, first compound 1 µM
[23] = second compound 1 µM, first compound 3.16 µM
[24] = second compound 1 µM, first compound 10 µM
[25] = second compound 3.16 µM, first compound 0.0316 µM
[26] = second compound 3.16 µM, first compound 0.1 µM
[27] = second compound 3.16 µM, first compound 0.316 µM
[28] = second compound 3.16 µM, first compound 1 µM
[29] = second compound 3.16 µM, first compound 3.16 µM
[30] = second compound 3.16 µM, first compound 10 µM
[31] = second compound 10 µM, first compound 0.0316 µM
[32] = second compound 10 µM, first compound 0.1 µM
[33] = second compound 10 µM, first compound 0.316 µM
[34] = second compound 10 µM, first compound 1 µM
[35] = second compound 10 µM, first compound 3.16 µM
[36] = second compound 10 µM, first compound 10 µM
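Also: luminescence signal used as a surrogate for viable cells; spheroids exposed to drugs for seven days before readout.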

COc1cc(C2c3cc4c(cc3C(OC3OC5COC(C)OC5C(O)C3O)C3COC(=O)C23)OCO4)cc(OC)c1O (centres undefined) + Nc1ccc(C#CCN(C(=O)Cc2ncc(C(F)(F)F)cc2C(F)(F)F)c2ccc(F)cc2)nn1
5.11: pIC50 (second compound 10 µM)
inactive: viability, T/C [1] 101% | viability, T/C [2] 105% | viability, T/C [3] 93.2% | viability, T/C [4] 94.2% | viability, T/C [5] 68% | viability, T/C [6] 67.7% | viability, T/C [7] 112% | viability, T/C [8] 96.4% | viability, T/C [9] 99.5% | viability, T/C [10] 86% | viability, T/C [11] 65.7% | viability, T/C [12] 66.2% | viability, T/C [13] 92.4% | viability, T/C [14] 99.5% | viability, T/C [15] 86.5% | viability, T/C [16] 83.4% | viability, T/C [17] 75.4% | viability, T/C [18] 69.7% | viability, T/C [19] 92.4% | viability, T/C [20] 96.9% | viability, T/C [21] 97.1% | viability, T/C [22] 81% | viability, T/C [23] 61% | viability, T/C [24] 67.7% | viability, T/C [25] 91.1% | viability, T/C [26] 93.7% | viability, T/C [27] 94.6% | viability, T/C [28] 82.4% | viability, T/C [29] 57.8% | viability, T/C [30] 54.3% | viability, T/C [31] 96% | viability, T/C [32] 104% | viability, T/C [33] 99.5% | viability, T/C [34] 91% | viability, T/C [35] 61.4% | viability, T/C [36] 46.8%
< 5.00: pIC50 (second compound 0.0316 µM) | pIC50 (second compound 0.1 µM) | pIC50 (second compound 0.316 µM) | pIC50 (second compound 1 µM) | pIC50 (second compound 3.16 µM)

O=c1[nH]cc(F)c(=O)[nH]1 + Nc1ccc(C#CCN(C(=O)Cc2ncc(C(F)(F)F)cc2C(F)(F)F)c2ccc(F)cc2)nn1
inactive: viability, T/C [1] 98.7% | viability, T/C [2] 105% | viability, T/C [3] 109% | viability, T/C [4] 84.9% | viability, T/C [5] 95.7% | viability, T/C [6] 79% | viability, T/C [7] 106% | viability, T/C [8] 99.8% | viability, T/C [9] 95.9% | viability, T/C [10] 103% | viability, T/C [11] 82.6% | viability, T/C [12] 88.1% | viability, T/C [13] 95% | viability, T/C [14] 102% | viability, T/C [15] 103% | viability, T/C [16] 105% | viability, T/C [17] 85% | viability, T/C [18] 94.1% | viability, T/C [19] 94.2% | viability, T/C [20] 93.9% | viability, T/C [21] 83.7% | viability, T/C [22] 85.8% | viability, T/C [23] 73.5% | viability, T/C [24] 79.9% | viability, T/C [25] 101% | viability, T/C [26] 110% | viability, T/C [27] 118% | viability, T/C [28] 86.2% | viability, T/C [29] 88.6% | viability, T/C [30] 72.5% | viability, T/C [31] 105% | viability, T/C [32] 94.5% | viability, T/C [33] 103% | viability, T/C [34] 91.2% | viability, T/C [35] 84.1% | viability, T/C [36] 81%
< 5.00: pIC50 (second compound 0.0316 µM) | pIC50 (second compound 0.1 µM) | pIC50 (second compound 0.316 µM) | pIC50 (second compound 1 µM) | pIC50 (second compound 3.16 µM) | pIC50 (second compound 10 µM)

From PubChem BioAssay AID1963825 (Molecular Pharmacology Branch, DTP, NCI, 2024)
